Data published in the NIST ThermoML archive (doi:10.1021/je030222n).

Conditions: Liquid

CCCCCCCCC [nonane]
Closed cell (Static) method
Conditions	vapor or sublimation pressure [kPa]
322.59 K	2.34
338.33 K	4.99
351.53 K	9
371.37 K	19.81

CCCCO [butan-1-ol]
Closed cell (Static) method
Conditions	vapor or sublimation pressure [kPa]
314.19 K	2.7
323.2 K	4.49
338.21 K	10.38
342.17 K	12.89
352.81 K	21.44
361.24 K	31.52
371.94 K	49.26

CCOC(N)=O [ethyl carbamate]
Closed cell (Static) method
Conditions	vapor or sublimation pressure [kPa]
322.6 K	0.88
337.2 K	1.287
342.3 K	1.494
352.5 K	1.957
362.6 K	2.381
371.7 K	2.953

CCCCN=C=O [butyl isocyanate]
Conditions	vapor or sublimation pressure [kPa]
294.15 K	2.48
323.24 K	9.52
338.02 K	17.88
353.02 K	32.1
362.65 K	44.82
372.6 K	61.84
387.87 K	99.08
